Assay results taken from patent publication US7960339B2, “Antimicrobial peptides” (Österreichische Akademie der Wissenschaften, priority 2006, dated 2011).
Like-named read-outs stand apart in the source and are kept apart here. Ends that are not written are not given here. Peptide text beside a SMILES is read from it. * marks the point of attachment. Octanoyl(6-Me) = CCC(C)CCCCC(=O)*

How the values were obtained:
[1] = test system: LPS S. Minnesota Re595; experiment: Endpoint LAL activity (Limulus gel-clotting test), inhibition of lipid A-induced LAL enzymatic cascade; type: biochemical; settings: sensibility 0.125 EU/ml, peptide:LPS 100:1 (w/w), minimum of 6 tests in triplicate
Method: (§1) The principle of lipid A-induced pro-inflammatory cytokine activity leading to hemorrhagic dermonecrosis (classical Shwartzmann reaction) was tested in rabbit, an animal model very close to humans in terms of sensitivity to LPS activity, and was compared to the inhibition of the lipid A-induced LAL enzymatic cascade activation leading to clot. Thereby, New Zealand White rabbits were injected in the shaved dorsal region with S. minnesota Re595 lipid A alone or with peptide 1:100 (w/w) (5 μg in 0.2 ml saline buffer; route i.d.). […] Polymyxin B (PmB) was used as a control.

[2] = test system: LPS Re595; experiment: Local Shwartzmann reaction in rabbit (lipid A-induced hemorrhagic dermonecrosis); type: in vivo, New Zealand White rabbits; settings: i.d. injection in shaved dorsal region; open necrosis observed after 72-96 hours; minimum 3 injections in minimum 3 rabbits
Method: as §1

[3] = test system: C. neoformans ATCC 32045; type: cell-based
Outline: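 Fungal inoculum was about 1×10^5 to 5×10^5 CFU/ml in 2×YM broth, added to peptides dispensed at 1 mg/ml to 1 μg/ml in twofold serial dilutions. After 72 hrs at 26° C, relative growth was read as OD620. IC50 values came from sigmoidal curve fitting.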

[4] = test system: MonoMac6 cells; experiment: Release of TNFα from MonoMac6 cells stimulated by bacteria killed with antibiotics or peptides (ELISA); type: cell-based; settings: E. coli strain 0:111 incubated over night with agent, then 15 hours on 10^5 MonoMac6 cells; FIG. 5
Method: Bacteria can be killed by different antibiotics, targeting different molecules essential for bacterial survival. When Gram-negative bacteria are killed, released LPS can stimulate production of cytokines, such as TNFα, or other inflammatory mediators. Comparison of well-established antimicrobial agents acting through different cellular targets with compounds of this invention were done in the following manner: bacteria (E. coli strain 0:111) were grown in LB medium to the absorbance at 600 nm of 0.4 and diluted 2500 fold in RPMI medium with added glucose. Different concentrations of antibiotics or peptides from this invention were added and incubated over night. 80 μl of cell suspension was added to the 100 μl containing 10^5 MonoMac6 cells and after 15 hours the release of TNFα to the medium was determined using ELISA test.

[5] = test system: E. coli (strain 0:111); experiment: Antimicrobial assay with peptide immobilized on magnetic particles; type: cell-based; settings: over night
Method: Peptide P2-32 (500 μg) was covalently bound to the cyanuric chloride-activated magnetic particles (10 mg) (Chemicell, Product number 1314) using phosphate buffer saline pH=7.5. After mixing the suspension on a shaker for 2 hours at room temperature the blocking buffer (PBS pH=7.5 and 2% ethanolamine) were added and mixed the suspension on a shaker for 30 minutes at room temperatures. The particles were washed twice with PBS. Immobilized peptides were tested against E. coli (strain 0:111) grown in LB medium to the absorbance at 600 nm of 0.4 and diluted 2500 fold in LB medium. Different concentrations of magnetic particles immobilized with peptides were added and incubated over night.

[6] = test system: E. coli LPS; experiment: Mouse model of acute endotoxemia (LPS plus galactosamine); type: in vivo, ICR-CD1 mice; settings: 150 μg intraperitoneal immediately after 0.3 μg E. coli LPS + 18 mg galactosamine; monitored until 168 hours
Method: Mice are remarkably resistant to LPS-mediated septic shock. However, the sensitivity of mice to endotoxin can be potentiated by coinjecting LPS with galactosamine. Groups of 16-18 female ICR-CD1 mice of 20-25 g of weight were intraperitoneally injected with 200 μl of pyrogen-free saline containing a mixture of 0.3 μg of E. coli LPS and 18 mg of galactosamine. Previous experiments allowed to determine that such a combination was lethal for 90% (LD90) of the animals 48 h after the injection. Immediately after this challenge, mice received a second intraperitoneal injection at a different site of the abdomen containing 150 μg of the peptide dissolved in 150 μl of 10% DMF pyrogen-free saline. In all the experiments a group of mice was left untreated whereas another group received 150 μg of polymyxin B. Mortality of the animals was monitored at daily intervals until 168 hours postchallenge.

**Q.** Which “Endpoint LAL activity peptide: LPS Re595 100:1 (w/w)” value [1] does the source give for `CC[C@H](C)[C@H](NC(=O)[C@H](CCCNC(=N)N)NC(=O)[C@@H](NC(=O)[C@H](CCCNC(=N)N)NC(=O)[C@H](Cc1c[nH]c2ccccc12)NC(=O)[C@H](Cc1ccccc1)NC(=O)[C@@H]1CCCN1)[C@@H](C)CC)C(=O)N[C@@H](CCCNC(=N)N)C(=O)N[C@@H](CCCNC(=N)N)C(N)=O` [VS1-22, PFWRIRIRR-NH2] (H-PFWRIRIRR-NH2; N-terminus assumed) here?
**A.** NEGATIVE

**Q.** And the “Local Shwartzmann reaction in rabbit peptide: LPS Re595 100:1 (w/w)” value [2]?
**A.** NEGATIVE

**Q.** What about the “average IC50” value ([3]; 50% growth inhibition, OD620, 72 hrs at 26° C., 2×YM broth) of the same molecule?
**A.** 2 µg/mL

**Q.** What about the “average MIC” value ([3]; lowest concentration that resulted in 2% growth, OD620, 72 hrs at 26° C., 2×YM broth) of the same molecule?
**A.** 8 µg/mL

**Q.** And the “release of TNFα / stimulation of the monocytes” value [4]?
**A.** significantly inhibited the release of TNFα

**Q.** With `CCC(C)CCCCC(=O)N1CCC[C@H]1C(=O)N[C@@H](Cc1ccccc1)C(=O)N[C@@H](Cc1c[nH]c2ccccc12)C(=O)N[C@@H](CCCNC(=N)N)C(=O)N[C@H](C(=O)N[C@@H](CCCNC(=N)N)C(=O)N[C@H](C(=O)N[C@@H](CCCNC(=N)N)C(=O)N[C@@H](CCCNC(=N)N)C(N)=O)[C@@H](C)CC)[C@@H](C)CC` (some centres unmarked) [VS1-53, 6-methyloctanoyl PFWRIRIRR-NH2] ({Octanoyl(6-Me)}-PFWRIRIRR-NH2) as the molecule, how does the “average IC50” value ([3]; ATCC 32045, 72 h) read?
**A.** 6 µg/mL

**Q.** What about the “average MIC” value ([3]; ATCC 32045, 72 h) of the same molecule?
**A.** 16 µg/mL

**Q.** And the “release of TNFα / stimulation of the monocytes” value [4]?
**A.** significantly inhibited the release of TNFα

**Q.** Which “release of TNFα / stimulation of the monocytes” value [4] does the source give for `O=C(N[C@H](CO)[C@H](O)c1ccc([N+](=O)[O-])cc1)C(Cl)Cl` [chloramphenicol] here?
**A.** high stimulation of the monocytes

**Q.** What does the source list for “FIWRWRWR-NH2 (also: bound to magnetic particles) [Peptide P2-32]”?
**A.** bacterial growth ([5]; 0.25 mg immobilized magnetic particles, 100 μl diluted E. coli in LB): not-inhibited; bacterial growth ([5]; 0.5 mg immobilized magnetic particles, 100 μl diluted E. coli in LB): not-inhibited; bacterial growth ([5]; 1 mg immobilized magnetic particles, 100 μl diluted E. coli in LB): inhibited; bacterial growth ([5]; 2.5 mg immobilized magnetic particles, 100 μl diluted E. coli in LB): inhibited; bacterial growth ([5]; 5 mg immobilized magnetic particles, 100 μl diluted E. coli in LB): inhibited; bacterial growth ([5]; 50, 25 and 10 mg/ml concentrations of immobilized magnetic particles): prevented bacterial growth

**Q.** With penicilin as the molecule, how does the “release of TNFα / stimulation of the monocytes” value [4] read?
**A.** high stimulation of the monocytes

**Q.** What does the source list for polymyxin B [PmB, reference compound]?
**A.** Endpoint LAL activity peptide: LPS Re595 100:1 (w/w) [1]: NEGATIVE; Local Shwartzmann reaction in rabbit peptide: LPS Re595 100:1 (w/w) [2]: NEGATIVE; release of TNFα / stimulation of the monocytes [4]: significantly inhibited the release of TNFα; protection against endotoxic shock (mortality) [6]: did not confer significant protection
